Laboratory results as given in patent publication US20260125382A1, “COMPOUNDS FOR INHIBITING OR DEGRADING CDK2 AND/OR CDK9 AND MEDICINAL USE THEREOF” (KOREA RESEARCH INSTITUTE OF CHEMICAL TECHNOLOGY, priority 2022, published 2026).

How the values were obtained:
[1] = target: T1, CDK9 (Homo sapiens, UniProt P50750); test: CDK protein degradation activity (Western blotting), CDK9; format: cell-based; conditions: MDA-MB-231 cells, 16 hours, Western blot
T1 construct: endogenous in cells; host or cells: MDA-MB-231
T1 sequence (P50750 whole entry): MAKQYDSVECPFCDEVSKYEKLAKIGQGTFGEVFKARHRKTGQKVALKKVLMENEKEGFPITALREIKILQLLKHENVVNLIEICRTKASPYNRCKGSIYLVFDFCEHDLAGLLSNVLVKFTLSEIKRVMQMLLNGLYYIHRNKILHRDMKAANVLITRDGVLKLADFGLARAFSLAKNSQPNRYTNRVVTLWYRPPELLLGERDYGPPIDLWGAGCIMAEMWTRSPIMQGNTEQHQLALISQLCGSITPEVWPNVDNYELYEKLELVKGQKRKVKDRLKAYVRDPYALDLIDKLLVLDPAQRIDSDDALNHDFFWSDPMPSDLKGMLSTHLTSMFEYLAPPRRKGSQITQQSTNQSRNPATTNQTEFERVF
Summary of the method: (§1)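 Breast cancer line MDA-MB-231, 16 h compound treatment (100 nM–10 μM final, three doses). Immunoblot quantification of CDK2/CDK9 versus tubulin, normalized to DMSO control.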

[2] = target: T2, CDK2 (Homo sapiens, UniProt P24941); test: CDK protein degradation activity (Western blotting), CDK2; format: cell-based; conditions: MDA-MB-231 cells, 16 hours, Western blot
T2 construct: endogenous in cells; host or cells: MDA-MB-231
Summary of the method: as §1

Structure (SMILES): O=C1CC[C@H](N2C(=O)c3cccc(N4CCC(CCCN5CCN(c6ccc(Nc7ncnc8c7ncn8[C@H]7C[C@@H](NC(=O)Cc8ccccc8)C7)cc6)CC5)CC4)c3C2=O)C(=O)N1 [Compound 261, N-((1s,3s)-3-(6-((4-(4-(3-(1-(2-(2,6-dioxopiperidin-3-yl)-1,3-dioxoisoindolin-4-yl)piperidin-4-yl)propyl)piperazin-1-yl)phenyl)amino)-9H-purin-9-yl)cyclobutyl)-2-phenylacetamide]
- Enzyme degradation CDK9 (% remaining) @ 0.1 μM [1]: 60%
- Enzyme degradation CDK9 (% remaining) @ 1 μM [1]: 30%
- Enzyme degradation CDK9 (% remaining) @ 10 μM [1]: 20%
- Enzyme degradation CDK2 (% remaining) @ 0.1 μM [2]: 70%
- Enzyme degradation CDK2 (% remaining) @ 1 μM [2]: 90%
- Enzyme degradation CDK2 (% remaining) @ 10 μM [2]: 100%

Structure (SMILES): O=C1CC[C@H](N2C(=O)c3ccc(N4CCC(CC(=O)N5CCN(c6ccc(Nc7ncnc8c7ncn8[C@H]7C[C@@H](NC(=O)Cc8ccccc8)C7)cc6)CC5)CC4)cc3C2=O)C(=O)N1 [Compound 216, N-((1s,3s)-3-(6-((4-(4-(2-(1-(2-(2,6-dioxopiperidin-3-yl)-1,3-dioxoisoindolin-5-yl)piperidin-4-yl)acetyl)piperazin-1-yl)phenyl)amino)-9H-purin-9-yl)cyclobutyl)-2-phenylacetamide]
- Enzyme degradation CDK9 (% remaining) @ 0.1 μM [1]: 50/50/50%
- Enzyme degradation CDK9 (% remaining) @ 1 μM [1]: 50/50/50%
- Enzyme degradation CDK9 (% remaining) @ 10 μM [1]: 50/50/50%
- Enzyme degradation CDK2 (% remaining) @ 0.1 μM [2]: 40%
- Enzyme degradation CDK2 (% remaining) @ 1 μM [2]: 40%
- Enzyme degradation CDK2 (% remaining) @ 10 μM [2]: 50%

Structure (SMILES): O=C1CCC(c2ccc(OCC(=O)N3CCC4(CC3)CC(N3CCN(c5ccc(Nc6ncnc7c6ncn7[C@H]6C[C@@H](NC(=O)Cc7ccccc7)C6)cc5)CC3)C4)cc2)C(=O)N1 (stereo partly drawn) [Compound 205, N-((1s,3s)-3-(6-((4-(4-(7-(2-(4-(2,6-dioxopiperidin-3-yl)phenoxy)acetyl)-7-azaspiro[3.5]nonan-2-yl)piperazin-1-yl)phenyl)amino)-9H-purin-9-yl)cyclobutyl)-2-phenylacetamide]
- Enzyme degradation CDK9 (% remaining) @ 0.1 μM [1]: 0/0/0%
- Enzyme degradation CDK9 (% remaining) @ 1 μM [1]: 0/0/0%
- Enzyme degradation CDK9 (% remaining) @ 10 μM [1]: 0/0/0%
- Enzyme degradation CDK2 (% remaining) @ 0.1 μM [2]: 30/30/30%
- Enzyme degradation CDK2 (% remaining) @ 1 μM [2]: 30/30/30%
- Enzyme degradation CDK2 (% remaining) @ 10 μM [2]: 30/30/30%

Structure (SMILES): Cc1cccc(C(=O)NC2CC(n3cnc4c(NCc5cccc(N6CCN(C(=O)COc7cccc8c7C(=O)N([C@H]7CCC(=O)NC7=O)C8=O)CC6)c5)ncnc43)C2)n1 (stereo partly drawn) [Compound 128, N-((1s,3s)-3-(6-((3-(4-(2-((2-(2,6-dioxopiperidin-3-yl)-1,3-dioxoisoindolin-4-yl)oxy)acetyl)piperazin-1-yl)benzyl)amino)-9H-purin-9-yl)cyclobutyl)-6-methylpicolinamide]
- Enzyme degradation CDK9 (% remaining) @ 0.1 μM [1]: 90%
- Enzyme degradation CDK9 (% remaining) @ 1 μM [1]: 60%
- Enzyme degradation CDK9 (% remaining) @ 10 μM [1]: 100%
- Enzyme degradation CDK2 (% remaining) @ 0.1 μM [2]: 90%
- Enzyme degradation CDK2 (% remaining) @ 1 μM [2]: 50%
- Enzyme degradation CDK2 (% remaining) @ 10 μM [2]: 100%

Structure (SMILES): O=C1CC[C@H](n2nnc3ccc(N4CCC(CCCN5CCN(c6ccc(Nc7ncnc8c7ncn8C7CC(NC(=O)Cc8ccccc8)C7)cc6)CC5)CC4)cc3c2=O)C(=O)N1 (stereo partly drawn) [Compound 351, N-((1s,3s)-3-(6-((4-(4-(3-(1-(3-(2,6-dioxopiperidin-3-yl)-4-oxo-3,4-dihydrobenzo[d][1,2,3]triazin-6-yl)piperidin-4-yl)propyl)piperazin-1-yl)phenyl)amino)-9H-purin-9-yl)cyclobutyl)-2-phenylacetamide]
- Enzyme degradation CDK9 (% remaining) @ 0.1 μM [1]: 10/10/10%
- Enzyme degradation CDK9 (% remaining) @ 1 μM [1]: 10/10/10%
- Enzyme degradation CDK9 (% remaining) @ 10 μM [1]: 10/10/10%
- Enzyme degradation CDK2 (% remaining) @ 0.1 μM [2]: 20%
- Enzyme degradation CDK2 (% remaining) @ 1 μM [2]: 10%
- Enzyme degradation CDK2 (% remaining) @ 10 μM [2]: 10%

Structure (SMILES): Cc1cccc(C(=O)NC2CC(n3cnc4c(NCCCN5CCN(CC6CCN(C(=O)COc7ccc8c(c7)C(=O)N([C@@H]7CCC(=O)NC7=O)C8=O)CC6)CC5)ncnc43)C2)n1 (stereo partly drawn) [Compound 144, N-((1r,3r)-3-(6-((3-(4-((1-(2-((2-(2,6-dioxopiperidin-3-yl)-1,3-dioxoisoindolin-5-yl)oxy)acetyl)piperidin-4-yl)methyl)piperazin-1-yl)propyl)amino)-9H-purin-9-yl)cyclobutyl)-6-methylpicolinamide]
- Enzyme degradation CDK9 (% remaining) @ 0.1 μM [1]: 80%
- Enzyme degradation CDK9 (% remaining) @ 1 μM [1]: 10%
- Enzyme degradation CDK9 (% remaining) @ 10 μM [1]: 0%
- Enzyme degradation CDK2 (% remaining) @ 0.1 μM [2]: 100%
- Enzyme degradation CDK2 (% remaining) @ 1 μM [2]: 70%
- Enzyme degradation CDK2 (% remaining) @ 10 μM [2]: 70%

Structure (SMILES): N#Cc1cccc(C(=O)N[C@H]2C[C@@H](n3cnc4c(Nc5ccc(N6CCN(CC7CCN(C(=O)C8CCN(c9ccc%10c(c9)C(=O)N(C9CCC(=O)NC9=O)C%10=O)CC8)CC7)CC6)cc5)ncnc43)C2)n1 (stereo partly drawn) [Compound 455, 6-cyano-N-((1s,3s)-3-(6-((4-(4-((1-(1-(2-(2,6-dioxopiperidin-3-yl)-1,3-dioxoisoindolin-5-yl)piperidin-4-carbonyl)piperidin-4-yl)methyl)piperazin-1-yl)phenyl)amino)-9H-purin-9-yl)cyclobutyl)picolinamide]
- Enzyme degradation CDK9 (% remaining) @ 0.1 μM [1]: 0/0/0%
- Enzyme degradation CDK9 (% remaining) @ 1 μM [1]: 0/0/0%
- Enzyme degradation CDK9 (% remaining) @ 10 μM [1]: 0/0/0%
- Enzyme degradation CDK2 (% remaining) @ 0.1 μM [2]: 30%
- Enzyme degradation CDK2 (% remaining) @ 1 μM [2]: 20%
- Enzyme degradation CDK2 (% remaining) @ 10 μM [2]: 20%

Structure (SMILES): Cc1cccc(C(=O)NC2CC(n3cnc4c(NCCC5CCN(CC6CCN(CC7CN(c8ccc9c(c8)C(=O)N([C@H]8CCC(=O)NC8=O)C9=O)C7)CC6)CC5)ncnc43)C2)n1 (stereo partly drawn) [Compound 402, N-((1s,3s)-3-(6-((2-(1-((1-((1-(2-(2,6-dioxopiperidin-3-yl)-1,3-dioxoisoindolin-5-yl)azetidin-3-yl)methyl)piperidin-4-yl)methyl)piperidin-4-yl)ethyl)amino)-9H-purin-9-yl)cyclobutyl)-6-methylpicolinamide]
- Enzyme degradation CDK9 (% remaining) @ 0.1 μM [1]: 0/0/0%
- Enzyme degradation CDK9 (% remaining) @ 1 μM [1]: 0/0/0%
- Enzyme degradation CDK9 (% remaining) @ 10 μM [1]: 0/0/0%
- Enzyme degradation CDK2 (% remaining) @ 0.1 μM [2]: 70%
- Enzyme degradation CDK2 (% remaining) @ 1 μM [2]: 50%
- Enzyme degradation CDK2 (% remaining) @ 10 μM [2]: 50%

Structure (SMILES): O=C1CC[C@H](N2C(=O)c3cccc(OCC(=O)N4CCC(CN5CCN(c6ccc(Nc7ncnc8c7ncn8[C@H]7C[C@@H](NC(=O)c8c(Cl)cccc8Cl)C7)cc6)CC5)CC4)c3C2=O)C(=O)N1 [Compound 163, 2,6-dichloro-N-((1s,3s)-3-(6-((4-(4-((1-(2-((2-(2,6-dioxopiperidin-3-yl)-1,3-dioxoisoindolin-4-yl)oxy)acetyl)piperidin-4-yl)methyl)piperazin-1-yl)phenyl)amino)-9H-purin-9-yl)cyclobutyl)benzamide]
- Enzyme degradation CDK9 (% remaining) @ 0.1 μM [1]: 0/0/0%
- Enzyme degradation CDK9 (% remaining) @ 1 μM [1]: 0/0/0%
- Enzyme degradation CDK9 (% remaining) @ 10 μM [1]: 0/0/0%
- Enzyme degradation CDK2 (% remaining) @ 0.1 μM [2]: 20%
- Enzyme degradation CDK2 (% remaining) @ 1 μM [2]: 10%
- Enzyme degradation CDK2 (% remaining) @ 10 μM [2]: 10%

Structure (SMILES): O=C1CCC(N2C(=O)c3ccc(N4CCC(C(=O)N5CCN(CC6CCN(c7ccc(Nc8ncnc9c8ncn9[C@H]8C[C@@H](NC(=O)c9c(Cl)cccc9Cl)C8)cc7)CC6)CC5)CC4)cc3C2=O)C(=O)N1 (stereo partly drawn) [Compound 474, 2,6-dichloro-N-((1s,3s)-3-(6-((4-(4-((4-(1-(2-(2,6-dioxopiperidin-3-yl)-1,3-dioxoisoindolin-5-yl)piperidin-4-carbonyl)piperazin-1-yl)methyl)piperidin-1-yl)phenyl)amino)-9H-purin-9-yl)cyclobutyl)benzamide]
- Enzyme degradation CDK9 (% remaining) @ 0.1 μM [1]: 10%
- Enzyme degradation CDK9 (% remaining) @ 1 μM [1]: 0%
- Enzyme degradation CDK9 (% remaining) @ 10 μM [1]: 0%
- Enzyme degradation CDK2 (% remaining) @ 0.1 μM [2]: 20%
- Enzyme degradation CDK2 (% remaining) @ 1 μM [2]: 30%
- Enzyme degradation CDK2 (% remaining) @ 10 μM [2]: 30%

Structure (SMILES): O=C1CCC(N2C(=O)c3ccc(N4CCC(CN5CCC(CCNc6ncnc7c6ncn7[C@H]6C[C@@H](NC(=O)c7c(Cl)cccc7Cl)C6)CC5)CC4)cc3C2=O)C(=O)N1 (stereo partly drawn) [Compound 396, 2,6-dichloro-N-((1s,3s)-3-(6-((2-(1-((1-(2-(2,6-dioxopiperidin-3-yl)-1,3-dioxoisoindolin-5-yl)piperidin-4-yl)methyl)piperidin-4-yl)ethyl)amino)-9H-purin-9-yl)cyclobutyl)benzamide]
- Enzyme degradation CDK9 (% remaining) @ 0.1 μM [1]: 20/20/20%
- Enzyme degradation CDK9 (% remaining) @ 1 μM [1]: 20/20/20%
- Enzyme degradation CDK9 (% remaining) @ 10 μM [1]: 20/20/20%
- Enzyme degradation CDK2 (% remaining) @ 0.1 μM [2]: 20%
- Enzyme degradation CDK2 (% remaining) @ 1 μM [2]: 30%
- Enzyme degradation CDK2 (% remaining) @ 10 μM [2]: 30%
